This test concerns human melanoma tissue specimens. As to the kind of experiment: RNASeq of human melanoma tissue at baseline and during disease progression. It counts as in vivo. As to conditions: following disease progression versus baseline. From the text: All plasma samples were collected from 17 advanced melanoma patients undergoing anti-PD-1 ab immunotherapy at week 0 and week 12 on an ongoing tissue acquisition protocol investigating checkpoint inhibitor resistance at Duke Cancer Institute (NCT02694965). Three paired tumor specimens obtained at week 0 and at the time of disease progression while undergoing anti-PD-1 ab immunotherapy were collected at Vanderbilt University Medical Center (Institutional Protocol #: 100178). Treatment responses were evaluated based on RECIST (Response Evaluation Criteria in Solid Tumors v1.1).
RNA-seq was performed by Duke Sequencing and Genomic Technologies Shared Resources. A complementary DNA library was prepared via oligo-dT-directed reverse transcription (Ambion) and subjected to deep sequencing on IlluminaHiSeq4000 (50-bp single-read sequencing; Anti-PD-1 resistance Study RNA-seq, accession number: SAMN09878780). RNA-seq data generated here and publicly available RNA-seq data were processed by Duke Center for Genomic and Computational Biology using the TrimGaloretoolkit that uses Cutadapt to trim low-quality bases and Illumina sequencing adapters from the 3′ end of the reads. Only reads that were of 20 nucleotides (nt) or longer after trimming were kept for further analysis. Reads were mapped to the GRCm38v68 version of the mouse genome and transcriptome using the STAR RNA-seq alignment tool. […]

For “nivolumab: an anti-PD-1 antibody, available from Bristol-Myers Squibb Co”, the “expression of myeloid markers CXCL1, CD33, ITGAM, CXCR2, S00A8 and S00A9” value is “elevated expression”.

For the origin of these results see US12121565B2, “Methods of treatment of specific cancers with NLRP3 inhibitors and anti-PD1/PD-L1 antibodies” (Duke University, priority 2019, dated 2024).
